This note sets out measurements from patent US9879050B2, “Substituted urea depsipeptide analogs as activators of the CLPP endopeptidase” (priority 2013, dated 2018).

≈ marks a conversion by molar mass, not a printed value. Read-outs that look alike come from different tables or passages of the source.

The subject of data set [1] is Vero (kidney epithelial cells; ATCC CCL-81). Nature of the data set: Cytotoxicity assay, CellTiter-Glo cell viability. The format is cell-based. As to conditions: Vero cells, 72 hours. A digest of the protocol:
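Vero cells seeded overnight at 37 °C in DMEM with 10% FBS, then exposed to serial dilutions of compound for 72 h. Viability read by CellTiter-Glo luminescence; IC50 from duplicates, given as the range of two independent experiments.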
A general note: In ATP-based viability assays light output follows the ATP content of the culture.

A further data set relates to S. aureus USA 300 ΔClpP. As to the kind of experiment: Minimal inhibitory concentration, microbroth dilution. The format is cell-based, Staphylococcus aureus. As to conditions: ClpP inactivated strain. The method in brief: (§1)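 Susceptibility testing used the CLSI dilution standard, with bacteria at ~10^5 cfu/mL exposed to a two-fold compound series beginning at 200 μM final. The endpoint is the lowest concentration showing no growth after overnight incubation (37 °C, aerobic).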

A further data set relates to S. pneumoniae R6. Described as above. Format: cell-based. A digest of the protocol: (§2)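 Twofold serial dilutions in broth per CLSI M7-A7 microbroth dilution, incubated aerobically overnight at 37° C. MIC read visually as lowest concentration preventing bacterial growth.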
In a further data set the test system is S. pyogenes ATCC 700294. The description is as above. The format is cell-based. The method in brief: as §2
In a further data set the test system is B. subtilis ATCC 23857. Described as above. The format is cell-based. A digest of the protocol:
as §1

For a further data set, the system named is S. aureus ATCC 29213. The description is as above. Format: cell-based. A digest of the protocol: as §1
The next data set deals with S. aureus NRS70. Described as above. The format is cell-based. The method in brief: as §1
For data set [2] the following is noted: from C[C@H]1C[C@@H](C(=O)O[C@@H](C)[C@H](NC(=O)OCc2ccccc2)C(=O)OCC(=O)c2ccccc2)N(C(=O)[C@H](C)NC(=O)[C@@H]2CCCCN2C(=O)[C@@H]2CCCN2C(=O)OC(C)(C)C)C1, amide bond, pentafluorophenyl ester (EDC·HCl/pentafluorophenol), then aq NaHCO3, DCM, 1.24 mM, 25.0 °C, 4 steps.
The next data set concerns S. aureus USA 300. As to the kind of experiment: Minimal inhibitory concentration, microbroth dilution. Format: cell-based. A digest of the protocol: as §1
Background: Dilution methods test growth across graded concentrations, often in twofold steps.

[3] abbreviates: Streptococcus pneumoniae, R6, read-out: Minimal Inhibitory Concentration S. pneumoniae R6.
Where [4] appears, read: Streptococcus pyogenes, ATCC700294, read-out: Minimal Inhibitory Concentration S. pyogenes ATCC 700294.
Setting [5] is: Bacillus subtilis, ATCC23857, read-out: Minimal Inhibitory Concentration B. subtilis ATCC 23857.
Where [6] appears, read: Staphylococcus aureus, ATCC29213, read-out: Minimal Inhibitory Concentration S. aureus ATCC 29213.
The mark [7] stands for this setting: Staphylococcus aureus, NRS70, read-out: Minimal Inhibitory Concentration S. aureus NRS70.
The mark [8] stands for this setting: Staphylococcus aureus, USA300, read-out: Minimal Inhibitory Concentration S. aureus USA 300.

As for `Cc1ccc(NC(=O)N[C@@H](Cc2cc(F)cc(F)c2)C(=O)N[C@@H]2C(=O)N3C[C@H](O)CC3C(=O)N(C)[C@@H](C)C(=O)N[C@@H](C)C(=O)N3C[C@@H](C)CC3C(=O)O[C@H]2C)cc1` (stereo partly drawn) [Compound 31, (S)-3-(3,5-Difluorophenyl)-N-((2S,6S,9S,11aS,13R,17S,18S,20aS)-13-Hydroxy-2,6,9,10,18-Pentamethyl-5,8,11,16,20-Pentaoxohexadecahydro-1H,5H,16H-Dipyrrolo[2,1-C:2′,1′-L][1]Oxa[4,7,10,13]Tetraazacyclohexadecin-17-Yl)-2-(3-(P-Tolyl)Ureido)Propanamide], the IC50 (in general, the concentration needed to halve the response being measured) in data set [1] was above 100 µM. Moreover, in the data set on S. aureus USA 300 ΔClpP, the “Minimal Inhibitory Concentration S. aureus USA 300 ΔClpP” value was above 200 µM. Also, the MIC is 0.195 µM (≈ 0.156 µg/mL) with S. pneumoniae R6 (setting [3]); 0.78 µM (≈ 0.622 µg/mL) with S. pyogenes ATCC 700294 (setting [4]); 0.39 µM (≈ 0.311 µg/mL) in the data set with B. subtilis ATCC 23857 (setting [5]); 0.39 µM (≈ 0.311 µg/mL) in the data set with S. aureus ATCC 29213 (setting [6]); 0.39 µM (≈ 0.311 µg/mL) with S. aureus NRS70 (setting [7]).
Compound `C[C@H]1C[C@H]2C(=O)O[C@@H](C)[C@H](NC(=O)OCc3ccccc3)C(=O)N3CCC[C@H]3C(=O)N3CCCC[C@H]3C(=O)N[C@@H](C)C(=O)N2C1` showed a ring closure, yield of all isomers in [2] of 74%.
Consider `Cc1ccc(NC(=O)N[C@@H](Cc2cc(F)cc(F)c2)C(=O)N[C@@H]2C(=O)N3CCCC3C(=O)N(C)[C@@H]([C@H](C)O)C(=O)N[C@@H](C)C(=O)N3C[C@@H](C)CC3C(=O)O[C@H]2C)cc1` (stereo partly drawn) [Compound 35, (S)-3-(3,5-Difluorophenyl)-N-((2S,6S,9S,11aS,17S,18S,20aS)-9-((S)-1-Hydroxyethyl)-2,6,10,18-Tetramethyl-5,8,11,16,20-Pentaoxohexadecahydro-1H,5H,16H-Dipyrrolo[2,1-C:2′,1′-L][1]Oxa[4,7,10,13]Tetraazacyclohexadecin-17-Yl)-2-(3-(P-Tolyl)Ureido)Propanamide], for which it took 55.7 ± 3.6 µM to reach half-maximal inhibition in data set [1] (IC50). Moreover, the “Minimal Inhibitory Concentration S. aureus USA 300 ΔClpP” value in the data set with S. aureus USA 300 ΔClpP was 200 µM. Moreover, the MIC with S. pneumoniae R6 (setting [3]) amounted to 0.049 µM (≈ 0.0398 µg/mL); in the data set with S. pyogenes ATCC 700294 (setting [4]) it was 0.39 µM (≈ 0.317 µg/mL); in the data set on B. subtilis ATCC 23857 (setting [5]), 0.2 µM (≈ 0.162 µg/mL); with S. aureus ATCC 29213 (setting [6]), 0.2 µM (≈ 0.162 µg/mL); with S. aureus NRS70 (setting [7]), 0.1 µM (≈ 0.0812 µg/mL); in the data set on S. aureus USA 300 (setting [8]), 0.2 µM (≈ 0.162 µg/mL).
The compound `Cc1ccc(NC(=O)N[C@@H](Cc2cc(F)cc(F)c2)C(=O)N[C@@H]2C(=O)N3CCCC3C(=O)N(C)[C@@H]([C@H](C)O)C(=O)N[C@@H](C)C(=O)N3C[C@H](C)CC3C(=O)O[C@H]2C)cc1` (stereo partly drawn) [Compound 38, (S)-3-(3,5-Difluorophenyl)-N-((2R,6S,9S,11aS,17S,18S,20aS)-9-((S)-1-Hydroxyethyl)-2,6,10,18-Tetramethyl-5,8,11,16,20-Pentaoxohexadecahydro-1H,5H,16H-Dipyrrolo[2,1-C:2′,1′-L][1]Oxa[4,7,10,13]Tetraazacyclohexadecin-17-Yl)-2-(3-(P-Tolyl)Ureido)Propanamide] gave a half-inhibitory concentration (IC50) in [1] of 46.1 ± 5.5 µM. In the data set on S. aureus USA 300 ΔClpP, the “Minimal Inhibitory Concentration S. aureus USA 300 ΔClpP” value was 200 µM. Moreover, the MIC with S. pneumoniae R6 (setting [3]) is 0.02 µM (≈ 0.0162 µg/mL); in the data set on S. pyogenes ATCC 700294 (setting [4]) it was 0.1 µM (≈ 0.0812 µg/mL); with B. subtilis ATCC 23857 (setting [5]) it was 0.05 µM (≈ 0.0406 µg/mL); with S. aureus ATCC 29213 (setting [6]) it was 0.05 µM (≈ 0.0406 µg/mL); in the data set with S. aureus NRS70 (setting [7]), 0.05 µM (≈ 0.0406 µg/mL); in the data set on S. aureus USA 300 (setting [8]), 0.1 µM (≈ 0.0812 µg/mL).
As for `CCc1ccc(NC(=O)N[C@@H](Cc2cc(F)cc(F)c2)C(=O)N[C@@H]2C(=O)N3CCCC3C(=O)N(C)[C@@H]([C@H](C)O)C(=O)N[C@@H](C)C(=O)N3C[C@H](C)CC3C(=O)O[C@H]2C)cc1` (stereo partly drawn) [Compound 42, (S)-3-(3,5-Difluorophenyl)-2-(3-(4-Ethylphenyl)Ureido)-N-((2R,6S,9S,11aS,17S,18S,20aS)-9-((S)-1-Hydroxyethyl)-2,6,10,18-Tetramethyl-5,8,11,16,20-Pentaoxohexadecahydro-1H,5H,16H-Dipyrrolo[2,1-C:2′,1′-L][1]Oxa[4,7,10,13]Tetraazacyclohexadecin-17-Yl)Propanamide], the “Minimal Inhibitory Concentration S. aureus USA 300 ΔClpP” value in the data set with S. aureus USA 300 ΔClpP is 100 µM. For the same compound, the MIC in the data set on S. pneumoniae R6 (Streptococcus pneumoniae, R6; read-out: Minimal Inhibitory Concentration S. pneumoniae R6) was 0.01 µM (≈ 0.00826 µg/mL); with S. pyogenes ATCC 700294 (Streptococcus pyogenes, ATCC700294; read-out: Minimal Inhibitory Concentration S. pyogenes ATCC 700294) it was 0.05 µM (≈ 0.0413 µg/mL); with B. subtilis ATCC 23857 (Bacillus subtilis, ATCC23857; read-out: Minimal Inhibitory Concentration B. subtilis ATCC 23857), 0.01 µM (≈ 0.00826 µg/mL); with S. aureus ATCC 29213 (Staphylococcus aureus, ATCC29213; read-out: Minimal Inhibitory Concentration S. aureus ATCC 29213), 0.05 µM (≈ 0.0413 µg/mL); in the data set with S. aureus NRS70 (Staphylococcus aureus, NRS70; read-out: Minimal Inhibitory Concentration S. aureus NRS70), 0.02 µM (≈ 0.0165 µg/mL); with S. aureus USA 300 (Staphylococcus aureus, USA300; read-out: Minimal Inhibitory Concentration S. aureus USA 300), 0.1 µM (≈ 0.0826 µg/mL).
